Experimental data as given in US9790191B2, “Substituted acylaminopyrimidines as inducers of alpha interferon production” (JANSSEN SCIENCES IRELAND UC, priority 2012, dated 2017).

Legend:
IFN-α = experiment: Production of IFN-α in vivo after oral administration (murine pan-IFN-α ELISA); design: species or system C57BL/6 mice; settings: mice
Method: (§1) Production of IFN-α and Up-Regulation of CXCL10 mRNA In Vivo
(§2) The potential of compounds to induce IFN-α production and CXCL10 mRNA up-regulation in vivo was evaluated after oral administration to C57BL/6 mice. The quantity of IFN-α in systemic circulation was followed over time, using a murine pan-IFN-α ELISA (PBL InterferonSource, ref. 42120). This ELISA recognizes all murine IFN-α subtypes. […] CXCL10 mRNA expression levels were followed by RT-qPCR.
(§3) For each compound and dose tested, 3 female C57BL/6J mice, from 6-10 weeks of age, 20-22 g of body weight were tested. Animals were given compound 1 as a single oral dose of 15.5 mg/kg as a 1.55 mg/mL solution in 20% aqueous hydroxypropyl β-cyclodextrin vehicle using a feeding tube. 0.5, 1, 2, 4 and 7 hours after dosing, systemic blood was drawn from the tail vein into K-EDTA containing tubes. Plasma was separated from blood cells by centrifugation at 1500 g, 10 min, 4° C. and stored at −80° C. prior to ELISA analysis. At each time point, the median and standard deviation over the 3 animals was calculated to evaluate the potency of the compound.

CXCL10 mRNA = experiment: Up-regulation of CXCL10 mRNA in vivo after oral administration (RT-qPCR); design: species or system C57BL/6 mice; settings: mice
Method: as §1, §2
as §3, with “Plasma was separated from blood cells by centrifugation at 1500 g, 10 min, 4° C. and stored at −80° C. prior to ELISA analysis.” left out
Blood was also drawn from the tail vein into micronic tubes containing 500 μl of PAXgene solution (PAXgene blood RNA tubes from PreAnalytix). […] The ΔΔCt method (for relative quantification) was used to evaluate regulation of CXCL10 expression by the compound compared to the vehicle control. At each time point, the median and standard deviation over the 3 animals was calculated to evaluate the potency of the compounds.

CCCC[C@@H](CCOC(=O)C(C)C)Nc1nc(NC(=O)C(C)C)ncc1OC [Compound 1]
observed: Induction of endogenous interferon (IFN-α; liver, single oral dose of 15.5 mg/kg (FIG. 1A)) | Induction of endogenous interferon (IFN-α; plasma, single oral dose of 15.5 mg/kg (FIG. 1B)) | upregulation of CXCL10 (CXCL10 mRNA; blood, single oral dose of 15.5 mg/kg (FIG. 2B)) | upregulation of CXCL10 (CXCL10 mRNA; liver, single oral dose of 15.5 mg/kg (FIG. 2A))
